For orientation: IC50 means the concentration at which inhibition is half-maximal.

Read-outs that look alike come from different tables or passages of the source.

The source of these data is US20150038541A1, “COMPOSITION AND METHODS FOR CELL MODULATION” (APOSIGNAL BIOSCIENCE LLC, priority 2012, published 2015).

Series [1] concerns HeLa cells. Nature of the series: MTS cell viability of HeLa cells treated with anticancer drug with or without AS-7 (48 hours). The class given is cell-based, human. To be noted: for IC50: Homo sapiens, HeLa, 48 h, 48 hours, MTS, read-out: IC50 of bortezomib (loss of HeLa cell viability). As for the experimental part: HeLa cells were seeded in a 96 well tissue culture plate (2000 cells per well). The compounds, 10 μM AS-7 and bortezomib (BioVision, Inc., Milpitas, Calif.) at the concentrations indicated in FIG. 1, were added the following day. AS-7 was prepared according to the Ugi reaction by combination of the four components: isocyanide (III), m-cyanobenzaldehyde (IV), 2-benzoylbenzoic acid (V), and histamine (VI) in refluxing methanol (Ref. http://www.occhem.com/synthesis/2561 2.html). The Medicinal Chemistry unit of Southern Research Institute (2000 Ninth Avenue South Birmingham, Ala. 35205) was contracted by a fee for service agreement to synthesize AS-7.
After 48 hours, MTS (3-(4,5-dimethylthiazol-2-yl)-5-(3-carboxymethoxyphenyl)-2-(4-sulfophenyl)-2H-tetrazolium) was added and absorbance was measured at 490 nm. […] Values in FIG. 1 are relative to controls that contained only the vehicle in which the drugs were dissolved. Vehicle had no effect on cell viability. Error bars in FIG. 1 are not visible if they are smaller than the symbols. […]
HeLa cells were seeded in a 96 well tissue culture plate (2000 cells per well). The compounds, 10 μM AS-7 and bortezomib at the concentrations indicated in FIG. 9 were added the following day. After 48 hours, MTS was added and absorbance was measured at 490 nm. […] Values are relative to controls that contained only the vehicle in which the drugs were dissolved. Vehicle had no effect on cell viability.

The conditions of series [2]: cited from earlier work.
A further series deals with proteasome. Briefly: Proteasome activity measured in lysates of treated cells. Format: cell-based. To be noted: bortezomib treated HeLa cells; data not shown. The source says: (§1) The cytotoxic action of bortezomib is known to be mediated by proteasome inhibition and the induction of apoptosis.
The subject of a further series is T47D cells. Briefly: MTS cell viability of breast cancer T47D cells, bortezomib with or without AS-7. Format: cell-based, human. To be noted: 48 hours, MTS. As for the experimental part:
(§2) Breast cancer derived cell lines, T47D and 159C, were seeded in a 96 well tissue culture plate (2000 cells per well). The significance of these two lines of breast cancer derived cell lines is that the T47D cells positive for three markers used to optimize the chemotherapeutic treatment, namely HER2 receptor, estrogen receptor, and progesterone receptor. By contrast to the T47D cells, the 159C cells are negative for the three markers. The compounds, 10 μM AS-7 and a range of bortezomib (BioVision, Inc., Milpitas, Calif.) concentrations were added the following day. After 48 hours, MTS was added and absorbance was measured at 490 nm.

In the next series the test system is solid tumors. Conditions: phase I and II clinical trials; single agent or in combination with several anticancer drugs; cited from earlier work.
Another series concerns 159C cells. Briefly: MTS cell viability of breast cancer 159C cells, bortezomib with or without AS-7. The class given is cell-based. To be noted: 48 hours, MTS. As for the experimental part:
as §2

For another series, the system named is ovarian A2780 cells. Briefly: Crystal violet cell viability of ovarian A2780 cells, bortezomib with or without AS-7 (72 hours). Format: cell-based, human. To be noted: Homo sapiens, A2780, 72 h, 72 hours, crystal violet, read-out: IC50 of the cytotoxic effect of bortezomib towards ovarian A2780 cells. The procedure:
Ovarian tumor-derived cell lines, IGROV and A2780, were seeded in a 96 well tissue culture plate (2000 cells per well). The compounds, 10 μM AS-7 and bortezomib (BioVision, Inc., Milpitas, Calif.) at the concentrations indicated in the figures, were added the following day. AS-7 was prepared as described in Example I above. […] Values are relative to cells that with the vehicle in which the drugs were dissolved. Vehicle had no effect on cell viability. Error bars in FIG. 6 and FIG. 7 are not shown if they are smaller than the symbols.

In the next series the test system is caspase-3. Nature of the series: Caspase-3 activity measured in lysates of treated HeLa cells. The class given is cell-based. To be noted: bortezomib treated HeLa cells; data not shown.
Description: as §1

The next series relates to Melanoma A2620 cells. Nature of the series: Crystal violet cell viability of melanoma A2620 cells, bortezomib with or without AS-7 (72 hours). Format: cell-based, human. Conditions: Homo sapiens, 72 h, read-out: IC50 of bortezomib (loss of cell viability). The procedure: Melanoma A2620 cells were seeded in a 96 well tissue culture plate (2000 cells per well). The compounds, 10 μM AS-7 and bortezomib at the concentrations indicated in FIG. 8 were added the following day. […] Values are relative to controls that contained only the vehicle in which the drugs were dissolved. Vehicle had no effect on cell viability.

The subject of series [3] is HeLa cells. Nature of the series: MTS cell viability of HeLa cells treated with anticancer drug with or without AS-7 (48 hours). Format: cell-based, human. Conditions: Homo sapiens, HeLa, 48 h, 48 hours, MTS, read-out: IC50 of carfilzomib (loss of HeLa cell viability).
Series [4] has as its system HeLa cells.
Description: HeLa cells were treated with 10 micrograms/ml cycloheximide alone or together with a range of TNF-alpha concentrations from 2.5 to 20 nanograms per ml. Following treatment, the cells were fixed with 4% paraformaldehyde (4° C. for 30 minutes), stained for 30 minutes with 0.5% crystal violet in 10% ethanol, and washed extensively with water to remove dye that was not bound to the cells. Cell bound crystal violet was solubilized with 10% acetic acid and absorbance was measured at 590 nm to quantitate cell growth. The time course data for each cell line were fit by nonlinear regression analysis to the equation for exponential growth using GraphPad Prism software.

On to `CC(C)CC(C=CS(C)(=O)=O)NC(=O)C(CC(C)C)NC(=O)C(CC(C)C)NC(=O)Cc1cc(I)c(O)c([N+](=O)[O-])c1` (stereo not drawn) [NLVS, 4-hydroxy-5-iodo-3-nitrophenylacetyl-Leu-Leu-leucinal-vinyl sulfone, reference compound], for which the “HeLa cell viability at NLVS concentrations that by themselves had little effect” value in the series with HeLa cells [1] (in the presence of 10 μM AS-7) is listed as “complete loss of viability”.

As to `CC(C)C[C@H](NC(=O)[C@H](Cc1ccccc1)NC(=O)c1cnccn1)B(O)O` [bortezomib], the IC50 with HeLa cells [1] (in the absence of AS-7) was approximately 8.8 nM; in the series on HeLa cells [1] (in the presence of 10 μM AS-7), approximately 2.5 nM; in the series on ovarian A2780 cells (in the absence of AS-7), approximately 12.9 nM; in the series with ovarian A2780 cells (in the presence of 10 μM AS-7), approximately 4.2 nM; with Melanoma A2620 cells (in the absence of AS-7, 72 hours), approximately 7.3 nM; in the series with Melanoma A2620 cells (in the presence of 10 μM AS-7, 72 hours), approximately 2.4 nM. In addition, in [2] (after discontinuation of bortezomib treatment), the “median time to improvement from the neurotoxicity” value was “three”. The “patients with Grades 1 and 2 peripheral neuropathy” value in series [2] (patients with newly diagnosed disease under bortezomib therapy) was not above 33%; in series [2] (patients with recurrent disease under bortezomib therapy), “up to 75%”. Besides, the results for the “patients with grades 3 and 4 neurotoxicity” value in [2] (patients with newly diagnosed disease) and in [2] (patients with recurrent disease) were “up to 18%” and “up to 30%”, respectively. In addition, the “proteasome activity in cell lysates” value with proteasome is reported as “markedly inhibited”. Moreover, the “sensitivity to the cytotoxic action of bortezomib by itself” value in the series on T47D cells and in the series with 159C cells was “highly sensitive” each time. Moreover, the “activity against solid tumors” value with solid tumors is “quite limited activity”. The “caspase-3 activity in cell lysates” value in the series with caspase-3 is reported as “increased”.

For the compound `CC(C)C[C@H](NC(=O)[C@H](CCc1ccccc1)NC(=O)CN1CCOCC1)C(=O)N[C@@H](Cc1ccccc1)C(=O)N[C@@H](CC(C)C)C(=O)[C@@]1(C)CO1` [carfilzomib], the IC50 was approximately 8.5 nM in the series on HeLa cells [3] (in the absence of AS-7) and approximately 2.5 nM in the series with HeLa cells [3] (in the presence of 10 μM AS-7).

On to `C[C@@H]1C[C@@H]([C@H](O)CC2CC(=O)NC(=O)C2)C(=O)[C@@H](C)C1` [cycloheximide, reference compound], for which the “effect on HeLa cell proliferation and cell death” value in the series on HeLa cells [4] (10 micrograms/ml cycloheximide alone, 24 hour interval, absence or presence of AS-7) is “cytostatic, but not cytotoxic”.

For TNF-alpha, in the series on HeLa cells [4] (TNF-alpha in combination with cycloheximide, apparent within six hours), the “cytotoxicity to HeLa cells” value was “rapidly cytotoxic”.
